# Data from ChEMBL document CHEMBL1201862, “PubChem BioAssay data set” (2004).
#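 Cells were grown in 96-well plates and exposed to each compound for 48 hours at five concentrations; endpoints were interpolated linearly between bracketing concentrations, or set to the highest concentration if not reached. Abbreviation: GI50, concentration required for 50% inhibition of growth.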 Activity calls are given as the source filed them. Rule as the data show it: active = GI50 up to about 1.1 µM and inactive = higher.
# Experiments:
# Assay in all cases: inhibition of tumour cell growth, NCI panel, 48 h
# [1] = system: KM12
# [2] = system: OVCAR-8
# [3] = system: TK-10
# [4] = system: SW-620
# [5] = system: 786-0
# [6] = system: A549
# [7] = system: UO-31
# [8] = system: HCT-116
# [9] = system: MOLT-4
# [10] = system: Malme-3M
# [11] = system: OVCAR-5
# [12] = system: HCC 2998
# [13] = system: HL-60
# [14] = system: HOP-62
# [15] = system: COLO 205
# [16] = system: OVCAR-4
# [17] = system: OVCAR-3
# [18] = system: SNB-19
# [19] = system: EKVX
# [20] = system: CAKI-1
SMILES,GI50 [1],GI50 [2],GI50 [3],GI50 [4],GI50 [5],GI50 [6],GI50 [7],GI50 [8],GI50 [9],GI50 [10],GI50 [11],GI50 [12],GI50 [13],GI50 [14],GI50 [15],GI50 [16],GI50 [17],GI50 [18],GI50 [19],GI50 [20]
Clc1cc2ns[s+]c2cc1Cl,41 µM (inactive),> 56.5 µM (inactive),> 44.9 µM (inactive),32.8 µM (inactive),> 75.9 µM (inactive),56.9 µM (inactive),28.6 µM (inactive),41 µM (inactive),29.9 µM (inactive),> 100 µM (inactive),> 62.7 µM (inactive),59.7 µM (inactive),19.3 µM (inactive),31.8 µM (inactive),> 88.3 µM (inactive),> 100 µM (inactive),65 µM (inactive),> 74.8 µM (inactive),81.8 µM (inactive),18.9 µM (inactive)
CCOC(=O)C1(C#N)C(c2ccccc2)CC(O)(c2ccc(Cl)cc2)C(C(=O)c2ccc(Cl)cc2)C1c1ccccc1 (stereo not given),34 µM (inactive),> 100 µM (inactive),> 100 µM (inactive),> 100 µM (inactive),> 100 µM (inactive),> 100 µM (inactive),> 100 µM (inactive),> 100 µM (inactive),80.4 µM (inactive),> 100 µM (inactive),> 100 µM (inactive),> 100 µM (inactive),> 100 µM (inactive),> 100 µM (inactive),> 100 µM (inactive),> 100 µM (inactive),> 100 µM (inactive),34 µM (inactive),52.2 µM (inactive),> 100 µM (inactive)
CC(=O)NNc1nc(C)c(C(/C=C/c2ccc(Cl)cc2)=N\NS(=O)(=O)c2ccc(C)cc2)s1,> 100 µM (inactive),> 100 µM (inactive),> 100 µM (inactive),> 100 µM (inactive),> 100 µM (inactive),> 100 µM (inactive),> 100 µM (inactive),> 100 µM (inactive),> 100 µM (inactive),> 100 µM (inactive),> 100 µM (inactive),> 100 µM (inactive),> 100 µM (inactive),> 100 µM (inactive),> 100 µM (inactive),> 100 µM (inactive),> 100 µM (inactive),> 100 µM (inactive),> 100 µM (inactive),> 100 µM (inactive)
Cc1ccccc1NC(=O)c1nc(S)nc(N)c1-c1ccccc1C,> 100 µM (inactive),> 100 µM (inactive),> 100 µM (inactive),> 100 µM (inactive),> 100 µM (inactive),> 100 µM (inactive),> 100 µM (inactive),> 100 µM (inactive),> 100 µM (inactive),> 100 µM (inactive),> 100 µM (inactive),> 100 µM (inactive),> 100 µM (inactive),> 100 µM (inactive),> 100 µM (inactive),> 100 µM (inactive),> 100 µM (inactive),> 100 µM (inactive),> 100 µM (inactive),> 100 µM (inactive)
COc1cc(CN[C@H]2CCc3cc(OC)c(OC)c(OC)c3-c3ccc(SC)c(=O)cc32)cc(OC)c1,0.0385 µM (active),0.0481 µM (active),0.0807 µM (active),0.0347 µM (active),0.0468 µM (active),0.0376 µM (active),0.0938 µM (active),0.0399 µM (active),0.452 µM (active),0.0575 µM (active),0.0499 µM (active),0.0319 µM (active),0.0394 µM (active),0.0562 µM (active),0.0325 µM (active),0.0731 µM (active),0.0334 µM (active),0.0681 µM (active),0.0828 µM (active),0.0566 µM (active)
Cc1ccc(Oc2ccc(C(=O)c3cccc(C(=O)c4ccc(Oc5ccc(C)cc5)cc4)n3)cc2)cc1,> 100 µM (inactive),> 100 µM (inactive),> 100 µM (inactive),> 100 µM (inactive),> 100 µM (inactive),> 100 µM (inactive),> 100 µM (inactive),> 100 µM (inactive),> 100 µM (inactive),> 100 µM (inactive),> 100 µM (inactive),> 100 µM (inactive),> 100 µM (inactive),> 100 µM (inactive),> 100 µM (inactive),71.8 µM (inactive),> 100 µM (inactive),> 100 µM (inactive),> 100 µM (inactive),> 100 µM (inactive)
O=C1C2C3CC(C4C5C=CC(C5)C34)C2C2C3CC(C12)C1C2C=CC(C2)C31 (stereo not given),> 100 µM (inactive),> 100 µM (inactive),> 100 µM (inactive),20.8 µM (inactive),> 100 µM (inactive),> 100 µM (inactive),> 100 µM (inactive),> 100 µM (inactive),> 100 µM (inactive),> 100 µM (inactive),> 100 µM (inactive),> 100 µM (inactive),75.2 µM (inactive),> 100 µM (inactive),> 100 µM (inactive),> 100 µM (inactive),> 100 µM (inactive),> 100 µM (inactive),> 100 µM (inactive),> 100 µM (inactive)
COc1ccc(/C=C/C(=N/NC(=O)N/N=C(/C=C/c2ccc(OC)cc2)C(C)(C)CN2CCCCC2)C(C)(C)CN2CCCCC2)cc1,1.81 µM (inactive),1.8 µM (inactive),2.01 µM (inactive),2.11 µM (inactive),1.59 µM (inactive),1.86 µM (inactive),1.58 µM (inactive),1.33 µM (inactive),1.71 µM (inactive),1.92 µM (inactive),2.96 µM (inactive),1.74 µM (inactive),1.5 µM (inactive),2.15 µM (inactive),1.65 µM (inactive),1.88 µM (inactive),1.87 µM (inactive),2.61 µM (inactive),2.8 µM (inactive),1.83 µM (inactive)
C/C(=N/NC(=S)Nc1ccc([N+](=O)[O-])cc1)c1cccc(/C(C)=N\NC(=S)Nc2ccc([N+](=O)[O-])cc2)n1,0.348 µM (active),0.329 µM (active),0.577 µM (active),0.364 µM (active),0.264 µM (active),0.594 µM (active),0.382 µM (active),0.291 µM (active),0.308 µM (active),0.515 µM (active),2.29 µM (inactive),1.02 µM (active),0.265 µM (active),0.752 µM (active),0.218 µM (active),0.959 µM (active),0.0867 µM (active),1.33 µM (inactive),0.658 µM (active),0.631 µM (active)
COC(=O)CNS(=O)(=O)c1ccc(-c2c3nc(c(-c4ccc(S(=O)(=O)NCC(=O)OC)cc4)c4ccc([nH]4)c(-c4ccc(S(=O)(=O)NCC(=O)OC)cc4)c4nc(c(-c5ccc(S(=O)(=O)NCC(=O)OC)cc5)c5ccc2[nH]5)C=C4)C=C3)cc1,50.7 µM (inactive),> 100 µM (inactive),> 100 µM (inactive),> 100 µM (inactive),> 100 µM (inactive),> 100 µM (inactive),> 100 µM (inactive),> 100 µM (inactive),> 100 µM (inactive),> 100 µM (inactive),> 100 µM (inactive),> 100 µM (inactive),> 100 µM (inactive),> 100 µM (inactive),> 100 µM (inactive),> 100 µM (inactive),> 100 µM (inactive),> 100 µM (inactive),> 100 µM (inactive),> 100 µM (inactive)
O=C1N=CN=C2C=CC(Cl)=C(I)C12 (stereo not given),> 100 µM (inactive),> 100 µM (inactive),80.9 µM (inactive),> 100 µM (inactive),> 100 µM (inactive),> 100 µM (inactive),26.2 µM (inactive),42.5 µM (inactive),67.1 µM (inactive),> 100 µM (inactive),> 100 µM (inactive),> 100 µM (inactive),93.5 µM (inactive),67.5 µM (inactive),> 100 µM (inactive),> 100 µM (inactive),63 µM (inactive),47.9 µM (inactive),9.4 µM (inactive),24.3 µM (inactive)
COc1ccc(N2C(=O)C(Cl)C2c2cc3cc(Br)ccc3nc2Cl)cc1 (stereo not given),10.9 µM (inactive),13.4 µM (inactive),7.52 µM (inactive),5.55 µM (inactive),6.17 µM (inactive),11 µM (inactive),0.701 µM (active),4.68 µM (inactive),4.38 µM (inactive),4.94 µM (inactive),7.96 µM (inactive),4.09 µM (inactive),5.98 µM (inactive),6.44 µM (inactive),4.91 µM (inactive),4.36 µM (inactive),8.45 µM (inactive),9.93 µM (inactive),4.67 µM (inactive),6.32 µM (inactive)
CC(NO)/C(=N/O)c1ccco1 (stereo not given),> 10 µM (inactive),> 10 µM (inactive),> 10 µM (inactive),> 10 µM (inactive),> 10 µM (inactive),> 10 µM (inactive),> 10 µM (inactive),> 10 µM (inactive),> 10 µM (inactive),> 10 µM (inactive),> 10 µM (inactive),> 10 µM (inactive),> 10 µM (inactive),> 10 µM (inactive),> 10 µM (inactive),> 10 µM (inactive),> 10 µM (inactive),> 10 µM (inactive),> 10 µM (inactive),> 10 µM (inactive)
